Source: paper PMC6002473, “An Evolutionarily Conserved Structural Platform for PRC2 Inhibition by a Class of Ezh2 Inhibitors” (Scientific Reports, 2018)
pIC50: −log10 of the molar value.

Molecular target: T1, ctEzh2 (ctPRC2) (Thermochaetoides thermophila, UniProt G0SDW4)
T1 construct: gene EZH2; Fusion of Ezh2 (residues 191–950) and the VEFS domain of Suz12 (residues 530–691), and full length Eed (residues 1–565); with Eed, Suz12(VEFS)
T1 sequence (G0SDW4 191-950): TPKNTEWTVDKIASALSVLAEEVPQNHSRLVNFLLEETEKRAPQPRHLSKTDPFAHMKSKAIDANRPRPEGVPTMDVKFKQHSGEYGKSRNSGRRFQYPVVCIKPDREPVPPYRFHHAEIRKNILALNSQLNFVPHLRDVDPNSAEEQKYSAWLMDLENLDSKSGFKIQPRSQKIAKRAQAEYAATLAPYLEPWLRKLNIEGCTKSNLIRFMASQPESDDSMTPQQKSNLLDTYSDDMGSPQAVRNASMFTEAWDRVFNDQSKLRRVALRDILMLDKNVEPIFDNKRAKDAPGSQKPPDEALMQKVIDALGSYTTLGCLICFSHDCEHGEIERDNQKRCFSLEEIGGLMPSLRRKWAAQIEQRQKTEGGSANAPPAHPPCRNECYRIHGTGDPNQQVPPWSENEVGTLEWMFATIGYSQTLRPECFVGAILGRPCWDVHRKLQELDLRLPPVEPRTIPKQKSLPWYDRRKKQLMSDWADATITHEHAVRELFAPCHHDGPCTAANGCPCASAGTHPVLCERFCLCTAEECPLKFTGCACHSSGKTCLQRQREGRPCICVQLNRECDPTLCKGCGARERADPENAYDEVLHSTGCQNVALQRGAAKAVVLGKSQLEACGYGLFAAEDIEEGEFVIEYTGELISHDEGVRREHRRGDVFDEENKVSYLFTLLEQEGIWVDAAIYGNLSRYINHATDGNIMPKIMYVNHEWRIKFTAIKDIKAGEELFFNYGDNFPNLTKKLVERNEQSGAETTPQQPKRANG
T1 sequence (G0S8H7 1-565 partner): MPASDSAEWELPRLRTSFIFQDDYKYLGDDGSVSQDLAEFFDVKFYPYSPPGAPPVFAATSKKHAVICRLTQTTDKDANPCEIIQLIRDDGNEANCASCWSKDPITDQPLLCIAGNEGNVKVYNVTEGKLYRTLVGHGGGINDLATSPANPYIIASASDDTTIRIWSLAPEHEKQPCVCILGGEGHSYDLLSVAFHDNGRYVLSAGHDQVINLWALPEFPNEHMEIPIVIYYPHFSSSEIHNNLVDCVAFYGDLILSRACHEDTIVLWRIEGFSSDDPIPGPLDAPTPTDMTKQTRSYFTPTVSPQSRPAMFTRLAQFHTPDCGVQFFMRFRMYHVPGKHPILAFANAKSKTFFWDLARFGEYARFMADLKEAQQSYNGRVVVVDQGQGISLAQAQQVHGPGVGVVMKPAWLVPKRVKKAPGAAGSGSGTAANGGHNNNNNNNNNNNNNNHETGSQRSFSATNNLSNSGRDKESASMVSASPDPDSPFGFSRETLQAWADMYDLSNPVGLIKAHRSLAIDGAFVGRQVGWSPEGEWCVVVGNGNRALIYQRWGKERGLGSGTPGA
T1 sequence (G0RYC6 530-691 partner): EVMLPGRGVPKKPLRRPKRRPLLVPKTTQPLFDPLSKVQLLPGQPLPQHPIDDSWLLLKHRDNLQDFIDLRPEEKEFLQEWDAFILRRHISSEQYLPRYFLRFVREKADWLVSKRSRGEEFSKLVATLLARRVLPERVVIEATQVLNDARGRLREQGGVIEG
Assay: co-crystal structure ([…] Å, soaked); radiometric methyltransferase IC50
Assay type: biochemical

## CC[C@H](C)n1cc(C)c2c(C(=O)NCc3c(C)cc(C)[nH]c3=O)cc(-c3ccc(N4CCNCC4)nc3)cc21 [GSK126]
  pIC50: ~4.00
